The source of these data is publication PMC7702303, “Biochemical and transcript level differences between the three human phosphofructokinases show optimisation of each isoform for specific metabolic niches” (Biochemical Journal, 2020).

For orientation: AC50 means the midpoint of the concentration-response curve, whichever way the signal moves. In general, Ki refers to the equilibrium dissociation constant of an inhibitor or competing ligand from its target.

One test concerns the target T1, recombinant human PFK-M (Homo sapiens, UniProt P08237).
T1 construct: made in house; host or cells: PFK-deficient Saccharomyces cerevisiae
T1 sequence (P08237 1-780): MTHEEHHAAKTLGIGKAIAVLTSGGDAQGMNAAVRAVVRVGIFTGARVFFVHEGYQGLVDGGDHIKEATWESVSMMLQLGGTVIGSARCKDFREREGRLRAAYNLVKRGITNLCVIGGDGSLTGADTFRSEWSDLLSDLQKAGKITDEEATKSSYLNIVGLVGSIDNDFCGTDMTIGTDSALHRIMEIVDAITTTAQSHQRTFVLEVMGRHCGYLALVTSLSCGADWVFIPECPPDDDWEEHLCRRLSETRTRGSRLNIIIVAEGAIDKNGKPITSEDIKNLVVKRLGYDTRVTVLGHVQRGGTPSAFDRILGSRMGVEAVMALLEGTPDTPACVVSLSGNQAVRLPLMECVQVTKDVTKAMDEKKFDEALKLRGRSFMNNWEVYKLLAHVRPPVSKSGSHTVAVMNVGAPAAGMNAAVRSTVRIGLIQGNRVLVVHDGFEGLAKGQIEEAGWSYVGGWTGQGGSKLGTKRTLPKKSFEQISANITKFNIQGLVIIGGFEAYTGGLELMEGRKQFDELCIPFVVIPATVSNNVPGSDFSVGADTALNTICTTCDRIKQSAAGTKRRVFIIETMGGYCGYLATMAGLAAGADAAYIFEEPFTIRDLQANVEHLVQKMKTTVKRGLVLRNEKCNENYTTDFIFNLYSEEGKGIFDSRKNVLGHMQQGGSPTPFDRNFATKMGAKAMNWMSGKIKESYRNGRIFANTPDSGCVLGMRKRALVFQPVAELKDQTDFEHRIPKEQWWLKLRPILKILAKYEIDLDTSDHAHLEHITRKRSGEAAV
Put plainly: ALDO-TIM-G3PDH enzyme-linked kinetic assay, PFK-M. The test is classed as biochemical. Details: VmaxATP + modulator / VmaxF6P + modulator / K0.5ATP + modulator / K0.5F6P + modulator: unit not given here. On the procedure:
(§1) Recombinant human PFKs were expressed in PFK-deficient Saccharomyces cerevisiae and purified using the methods described previously, adapting earlier materials and protocols. Production of PFK intended for use in ATP titration experiments used 1 mM F6P as a tetramer stabilising agent in protein purification and storage buffers. Production of PFK intended for use in F6P titration experiments used 1 mM ATP as a tetramer stabilising agent in protein purification and storage buffers. Experimental details on the purification and characterisation procedures including figures showing SDS–PAGE gels of the highly pure PFKs used in the kinetic experiments described in this work have been recently published.
(§2) Assay buffer consisted of 50 mM TEA, 100 mM KCl, 10 mM MgCl2, 1 mM Tris(2-carboxyethyl)phosphine hydrochloride (TCEP), 10% glycerol, pH 7.4. Assay mix consisted of 5 units/ml glycerol-3-phosphate dehydrogenase (G3PDH, Sigma–Aldrich G6880), 2.5 units/ml aldolase (Sigma–Aldrich A2714), 25 units/ml triosephosphate isomerase (TIM, Sigma–Aldrich T6258), and 1.25 mM NADH. ATP and F6P were obtained from Sigma–Aldrich (A2383 and F3627, respectively). For ATP titrations, 38 µl of buffer or ligand were added to a clear non-binding 96-well plate. 40 µl of assay mix containing 10 mM F6P (final concentration 4 mM) was added and the plate was incubated at 25°C for 5 min. An amount of 2 µl of PFK isoforms were added to each well from stock concentrations of 150 µg/ml and the reaction was immediately started with 20 µl of ATP at varying concentrations. For F6P titrations, 30 µl of buffer or ligand was added to a clear non-binding 96-well plate. An amount of 40 µl of assay mix containing 1.25 mM ATP (final concentration 0.5 mM) was added and the plate was incubated at 25°C for 5 min. An amount of 5 µl of PFK isoforms were added to each well from stock concentrations of 200 µg/ml and the reaction was immediately started with 20 µl F6P at varying concentrations. All ligands and substrates (including ATP) were used at pH 7.4. All metabolites were obtained from Sigma–Aldrich unless otherwise stated. […] A SpectraMax M5 Multi-Mode Microplate Reader was used to measure A340nm at 13 s intervals for 10 min. All experiments were performed in triplicate unless otherwise stated.
(§3) Time-dependent absorbance change was converted into rate of NADH oxidation (µM s^−1) or specific activity (µmol min^−1 mg protein^−1) using the Beer-Lambert law (molar extinction coefficient of NADH 6.22 mM^−1 cm^−1). The initial rate of reaction was used to avoid accumulation of ADP, which activates PFK, interfering with the determination of kinetic properties. Non-linear regression analysis was performed on substrate titration data using GraphPad Prism 7, with curves fitted using allosteric sigmoidal models, enabling determination of steady-state kinetic values.

The target of a further test is T2, recombinant human PFK-P (Homo sapiens, UniProt Q01813).
T2 construct: made in house; host or cells: PFK-deficient Saccharomyces cerevisiae
T2 sequence (Q01813 1-784): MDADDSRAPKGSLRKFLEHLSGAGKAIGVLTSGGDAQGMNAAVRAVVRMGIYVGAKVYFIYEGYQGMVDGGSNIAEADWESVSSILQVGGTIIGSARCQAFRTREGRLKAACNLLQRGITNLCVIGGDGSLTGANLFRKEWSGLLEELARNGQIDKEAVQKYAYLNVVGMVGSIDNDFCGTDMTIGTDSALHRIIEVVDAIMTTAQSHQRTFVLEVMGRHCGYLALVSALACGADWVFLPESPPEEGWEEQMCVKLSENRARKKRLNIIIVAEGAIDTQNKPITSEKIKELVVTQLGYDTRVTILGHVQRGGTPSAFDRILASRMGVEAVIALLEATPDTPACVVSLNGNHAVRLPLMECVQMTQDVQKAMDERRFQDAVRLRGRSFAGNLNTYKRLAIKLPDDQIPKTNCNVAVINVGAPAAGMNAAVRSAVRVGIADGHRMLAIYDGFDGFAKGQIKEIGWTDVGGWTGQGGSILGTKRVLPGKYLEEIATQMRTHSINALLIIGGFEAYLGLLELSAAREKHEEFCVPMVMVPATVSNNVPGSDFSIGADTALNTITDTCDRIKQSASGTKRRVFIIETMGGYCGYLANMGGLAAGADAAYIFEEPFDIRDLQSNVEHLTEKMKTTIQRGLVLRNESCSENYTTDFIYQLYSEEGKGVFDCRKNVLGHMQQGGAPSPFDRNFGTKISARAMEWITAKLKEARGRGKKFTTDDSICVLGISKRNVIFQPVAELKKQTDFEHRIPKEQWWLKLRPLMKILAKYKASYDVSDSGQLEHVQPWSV
The test is described as follows: ALDO-TIM-G3PDH enzyme-linked kinetic assay, PFK-P. The test is classed as biochemical. To be noted: for K0.5F6P + modulator / VmaxF6P + modulator: ATP 0.5mM; for K0.5F6P + modulator / VmaxF6P + modulator / K0.5ATP + modulator / VmaxATP + modulator: N=3, mean (SD); for K0.5ATP + modulator / VmaxATP + modulator: F6P 4mM. On the procedure:
as §1, §2, §3

For another test, the system named is PFKP. To be noted: cited from earlier work.
Where [1] appears, read: activation, read-out: AC50^F26BP.
Setting [2] is: modulator 10 µM, ATP 0.5mM, N=3, mean (SD).
[3] abbreviates: modulator 10 µM, F6P 4mM, N=3, mean (SD).

Read-outs that look alike come from different tables or passages of the source.

For `O=P(O)(O)OC[C@H]1O[C@@](CO)(OP(=O)(O)O)[C@@H](O)[C@@H]1O` [F26BP, fructose 2,6-bisphosphate], the “effect on PFK activity, in words” value at recombinant human PFK-M and on recombinant human PFK-P was “strongly activated” each time. The “allosteric constant K0.5^ATP+F26BP/K0.5^ATP” value worked out at 1.10 at recombinant human PFK-M (ATP titration) and 0.54 at recombinant human PFK-P (ATP titration). Further, the AC50 at recombinant human PFK-M (setting [1]) came out at 6.27 µM; on recombinant human PFK-P (setting [1]), 9.13 µM. Besides, the results for the “change in kcat^ATP/K0.5^ATP compared with control PFK without modulator” value at recombinant human PFK-M (modulator 10 µM) and at recombinant human PFK-P (modulator 10 µM) were −7.4% and “+88%”, respectively. Besides, the “change in kcat^F6P/K0.5^F6P compared with control PFK without modulator” value was “+82%” at recombinant human PFK-M (modulator 10 µM) and “+111%” at recombinant human PFK-P (modulator 10 µM). In addition, the figures for the “K0.5F6P + modulator” value at recombinant human PFK-M (setting [2]) and at recombinant human PFK-P (modulator 10 µM) were 109.6 (5.3) and 2143 (132) M, respectively. Moreover, the “VmaxF6P + modulator” value on recombinant human PFK-M (setting [2]) was 5.81 (0.09); at recombinant human PFK-P (modulator 10 µM) it was 2.45 (0.18) moles/min/mg. Besides, the results for the “K0.5ATP + modulator” value at recombinant human PFK-M (setting [3]) and on recombinant human PFK-P (modulator 10 µM) were 165.2 (9.2) and 176.8 (33.8) M, respectively. In addition, the “VmaxATP + modulator” value at recombinant human PFK-M (setting [3]) was 38.80 (0.75); on recombinant human PFK-P (modulator 10 µM), 31.26 (1.96) moles/min/mg. For the same compound, the IC50 or AC50 (activator) with PFKP (ref Foe and Kemp, 1985) was 4.5 µM; in the test on PFKP (unit inferred, ref Vora 1985), 100 µM. Also, in the test with PFKP (ref Sanchez-Martinez et al., 2000, read-out: Kact), the EC50 is 2.2 µM.
With `C=C(OP(=O)(O)O)C(=O)O` [PEP, phosphoenolpyruvate], at recombinant human PFK-M (modulator 1100 µM), the “change in kcat^ATP/K0.5^ATP compared with control PFK without modulator” value is recorded as −11% and the “change in kcat^F6P/K0.5^F6P compared with control PFK without modulator” value is recorded as −7%. At recombinant human PFK-P (modulator 1100 µM), the “change in kcat^ATP/K0.5^ATP compared with control PFK without modulator” value is −40%, the “change in kcat^F6P/K0.5^F6P compared with control PFK without modulator” value is “+9%”, the “K0.5F6P + modulator” value is reported as 1378 (96) M and the “VmaxF6P + modulator” value was 0.81 (0.04) moles/min/mg. At recombinant human PFK-P (modulator 1100 µM), the “K0.5ATP + modulator” value is given as 352.3 (133.2) M and the “VmaxATP + modulator” value is 23.07 (2.40) moles/min/mg. On PFKP (ref Sanchez-Martinez et al., 2000), the Ki is 2780 µM.
